Measurements: the supplement of paper PMC10307832

Experiments:
Assay in all cases: relative viability (nuclei count vs DMSO), 5 days (fraction); higher = more cells survive
Alisertib = compound: COc1cc(Nc2ncc3c(n2)-c2ccc(Cl)cc2C(c2c(F)cccc2OC)=NC3)ccc1C(=O)O [Alisertib]
Summary of the method: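 For viability, nuclei in each treated well were divided by nuclei in vehicle wells and the median across plates was taken. Lung cancer cell lines in 1536-well plates were pinned with five library-drug doses (not always all listed) spaced by √10, cultured 5 days without medium change, and imaged at 4× after Hoechst staining, with plates passing only at control CV below 25% and at least one doubling.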

Alisertib + Luminespib = compound: COc1cc(Nc2ncc3c(n2)-c2ccc(Cl)cc2C(c2c(F)cccc2OC)=NC3)ccc1C(=O)O [Alisertib] + CCNC(=O)c1noc(-c2cc(C(C)C)c(O)cc2O)c1-c1ccc(CN2CCOCC2)cc1 [Luminespib] (partner 0.01 µM)
Summary of the method: (§1)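 One day after seeding in 1536-well plates, lung cancer cell lines were dosed by pin tool. Dosing was either single-drug or a fixed anchor-drug dose plus five library-drug doses (not always all listed) in √10 steps. After 5 days, nuclei were stained in one fix-and-stain step and counted on 4× images, and relative viability is the nuclei count of treated wells over that of vehicle wells, given as the median of duplicate plates.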

Alisertib + Foretinib = compound: COc1cc(Nc2ncc3c(n2)-c2ccc(Cl)cc2C(c2c(F)cccc2OC)=NC3)ccc1C(=O)O [Alisertib] + COc1cc2c(Oc3ccc(NC(=O)C4(C(=O)Nc5ccc(F)cc5)CC4)cc3F)ccnc2cc1OCCCN1CCOCC1 [Foretinib] (partner 0.25 µM)
Summary of the method: as §1

Alisertib + OSI-027 = compound: COc1cc(Nc2ncc3c(n2)-c2ccc(Cl)cc2C(c2c(F)cccc2OC)=NC3)ccc1C(=O)O [Alisertib] + COc1cccc2cc(-c3nc([C@H]4CC[C@H](C(=O)O)CC4)n4ncnc(N)c34)[nH]c12 [OSI-027] (partner 0.5 µM)
Summary of the method: as §1

Alisertib + Tozasertib = compound: COc1cc(Nc2ncc3c(n2)-c2ccc(Cl)cc2C(c2c(F)cccc2OC)=NC3)ccc1C(=O)O [Alisertib] + Cc1cc(Nc2cc(N3CCN(C)CC3)nc(Sc3ccc(NC(=O)C4CC4)cc3)n2)n[nH]1 [Tozasertib] (partner 0.1 µM)
Summary of the method: as §1

Alisertib + Dasatinib = compound: COc1cc(Nc2ncc3c(n2)-c2ccc(Cl)cc2C(c2c(F)cccc2OC)=NC3)ccc1C(=O)O [Alisertib] + Cc1nc(Nc2ncc(C(=O)Nc3c(C)cccc3Cl)s2)cc(N2CCN(CCO)CC2)n1 [Dasatinib] (partner 0.075 µM)
Summary of the method: as §1

Alisertib + Phenformin = compound: COc1cc(Nc2ncc3c(n2)-c2ccc(Cl)cc2C(c2c(F)cccc2OC)=NC3)ccc1C(=O)O [Alisertib] + N=C(N)NC(=N)NCCc1ccccc1 [Phenformin] (partner 250 µM)
Summary of the method: as §1

Alisertib + Trametinib = compound: COc1cc(Nc2ncc3c(n2)-c2ccc(Cl)cc2C(c2c(F)cccc2OC)=NC3)ccc1C(=O)O [Alisertib] + CC(=O)Nc1cccc(-n2c(=O)n(C3CC3)c(=O)c3c(Nc4ccc(I)cc4F)n(C)c(=O)c(C)c32)c1 [Trametinib] (partner 0.02 µM)
Summary of the method: as §1

Alisertib + Palbociclib = compound: COc1cc(Nc2ncc3c(n2)-c2ccc(Cl)cc2C(c2c(F)cccc2OC)=NC3)ccc1C(=O)O [Alisertib] + CC(=O)c1c(C)c2cnc(Nc3ccc(N4CCNCC4)cn3)nc2n(C2CCCC2)c1=O [Palbociclib] (partner 0.5 µM)
Summary of the method: as §1

Alisertib + AZD7762 = compound: COc1cc(Nc2ncc3c(n2)-c2ccc(Cl)cc2C(c2c(F)cccc2OC)=NC3)ccc1C(=O)O [Alisertib] + NC(=O)Nc1cc(-c2cccc(F)c2)sc1C(=O)N[C@H]1CCCNC1 [AZD7762] (partner 0.2 µM)
Summary of the method: as §1

Alisertib + Pemetrexed = compound: COc1cc(Nc2ncc3c(n2)-c2ccc(Cl)cc2C(c2c(F)cccc2OC)=NC3)ccc1C(=O)O [Alisertib] + Nc1nc2[nH]cc(CCc3ccc(C(=O)N[C@@H](CCC(=O)O)C(=O)O)cc3)c2c(=O)[nH]1 [Pemetrexed] (partner 0.2 µM)
Summary of the method: as §1

Alisertib + Decitabine = compound: COc1cc(Nc2ncc3c(n2)-c2ccc(Cl)cc2C(c2c(F)cccc2OC)=NC3)ccc1C(=O)O [Alisertib] + Nc1ncn([C@H]2C[C@H](O)[C@@H](CO)O2)c(=O)n1 [Decitabine] (partner 2 µM)
Summary of the method: as §1

Alisertib + Vorinostat = compound: COc1cc(Nc2ncc3c(n2)-c2ccc(Cl)cc2C(c2c(F)cccc2OC)=NC3)ccc1C(=O)O [Alisertib] + O=C(CCCCCCC(=O)Nc1ccccc1)NO [Vorinostat] (partner 1 µM)
Summary of the method: as §1

Alisertib + Olaparib = compound: COc1cc(Nc2ncc3c(n2)-c2ccc(Cl)cc2C(c2c(F)cccc2OC)=NC3)ccc1C(=O)O [Alisertib] + O=C(c1cc(Cc2n[nH]c(=O)c3ccccc23)ccc1F)N1CCN(C(=O)C2CC2)CC1 [Olaparib] (partner 8 µM)
Summary of the method: as §1

NCI-H1623
relative viability (Alisertib; 0.005 µM): 0.841
relative viability (Alisertib; 0.01581 µM): 0.856
relative viability (Alisertib; 0.05 µM): 0.656
relative viability (Alisertib; 0.1581 µM): 0.4
relative viability (Alisertib; 0.5 µM): 0.395
relative viability (Alisertib + Luminespib; first compound 0.005 µM): 0.499
relative viability (Alisertib + Luminespib; first compound 0.01581 µM): 0.496
relative viability (Alisertib + Luminespib; first compound 0.05 µM): 0.385
relative viability (Alisertib + Luminespib; first compound 0.1581 µM): 0.33
relative viability (Alisertib + Luminespib; first compound 0.5 µM): 0.379
relative viability (Alisertib + Foretinib; first compound 0.005 µM): 0.884
relative viability (Alisertib + Foretinib; first compound 0.01581 µM): 0.848
relative viability (Alisertib + Foretinib; first compound 0.05 µM): 0.569
relative viability (Alisertib + Foretinib; first compound 0.1581 µM): 0.425
relative viability (Alisertib + Foretinib; first compound 0.5 µM): 0.424
relative viability (Alisertib + OSI-027; first compound 0.005 µM): 0.439
relative viability (Alisertib + OSI-027; first compound 0.01581 µM): 0.439
relative viability (Alisertib + OSI-027; first compound 0.05 µM): 0.398
relative viability (Alisertib + OSI-027; first compound 0.1581 µM): 0.295
relative viability (Alisertib + OSI-027; first compound 0.5 µM): 0.309
relative viability (Alisertib + Tozasertib; first compound 0.005 µM): 0.37
relative viability (Alisertib + Tozasertib; first compound 0.01581 µM): 0.398
relative viability (Alisertib + Tozasertib; first compound 0.05 µM): 0.424
relative viability (Alisertib + Tozasertib; first compound 0.1581 µM): 0.386
relative viability (Alisertib + Tozasertib; first compound 0.5 µM): 0.425
relative viability (Alisertib + Dasatinib; first compound 0.005 µM): 0.587
relative viability (Alisertib + Dasatinib; first compound 0.01581 µM): 0.647
relative viability (Alisertib + Dasatinib; first compound 0.05 µM): 0.573
relative viability (Alisertib + Dasatinib; first compound 0.1581 µM): 0.344
relative viability (Alisertib + Dasatinib; first compound 0.5 µM): 0.337
relative viability (Alisertib + Phenformin; first compound 0.005 µM): 0.619
relative viability (Alisertib + Phenformin; first compound 0.01581 µM): 0.592
relative viability (Alisertib + Phenformin; first compound 0.05 µM): 0.501
relative viability (Alisertib + Phenformin; first compound 0.1581 µM): 0.382
relative viability (Alisertib + Phenformin; first compound 0.5 µM): 0.337

SW 900
relative viability (Alisertib; 0.005 µM): 0.635
relative viability (Alisertib; 0.01581 µM): 0.81
relative viability (Alisertib; 0.05 µM): 0.506
relative viability (Alisertib; 0.1581 µM): 0.264
relative viability (Alisertib; 0.5 µM): 0.24
relative viability (Alisertib + Trametinib; first compound 0.005 µM): 0.917
relative viability (Alisertib + Trametinib; first compound 0.01581 µM): 0.827
relative viability (Alisertib + Trametinib; first compound 0.05 µM): 0.374
relative viability (Alisertib + Trametinib; first compound 0.1581 µM): 0.217
relative viability (Alisertib + Trametinib; first compound 0.5 µM): 0.144
relative viability (Alisertib + Palbociclib; first compound 0.005 µM): 0.461
relative viability (Alisertib + Palbociclib; first compound 0.01581 µM): 0.475
relative viability (Alisertib + Palbociclib; first compound 0.05 µM): 0.303
relative viability (Alisertib + Palbociclib; first compound 0.1581 µM): 0.245
relative viability (Alisertib + Palbociclib; first compound 0.5 µM): 0.227
relative viability (Alisertib + Luminespib; first compound 0.005 µM): 0.16
relative viability (Alisertib + Luminespib; first compound 0.01581 µM): 0.167
relative viability (Alisertib + Luminespib; first compound 0.05 µM): 0.182
relative viability (Alisertib + Luminespib; first compound 0.1581 µM): 0.188
relative viability (Alisertib + Luminespib; first compound 0.5 µM): 0.176
relative viability (Alisertib + Foretinib; first compound 0.005 µM): 0.68
relative viability (Alisertib + Foretinib; first compound 0.01581 µM): 0.832
relative viability (Alisertib + Foretinib; first compound 0.05 µM): 0.598
relative viability (Alisertib + Foretinib; first compound 0.1581 µM): 0.194
relative viability (Alisertib + Foretinib; first compound 0.5 µM): 0.186
relative viability (Alisertib + OSI-027; first compound 0.005 µM): 0.532
relative viability (Alisertib + OSI-027; first compound 0.01581 µM): 0.399
relative viability (Alisertib + OSI-027; first compound 0.05 µM): 0.543
relative viability (Alisertib + OSI-027; first compound 0.1581 µM): 0.167
relative viability (Alisertib + OSI-027; first compound 0.5 µM): 0.111
relative viability (Alisertib + Tozasertib; first compound 0.005 µM): 0.557
relative viability (Alisertib + Tozasertib; first compound 0.01581 µM): 0.54
relative viability (Alisertib + Tozasertib; first compound 0.05 µM): 0.375
relative viability (Alisertib + Tozasertib; first compound 0.1581 µM): 0.241
relative viability (Alisertib + Tozasertib; first compound 0.5 µM): 0.191
relative viability (Alisertib + Dasatinib; first compound 0.005 µM): 0.494
relative viability (Alisertib + Dasatinib; first compound 0.01581 µM): 0.435
relative viability (Alisertib + Dasatinib; first compound 0.05 µM): 0.404
relative viability (Alisertib + Dasatinib; first compound 0.1581 µM): 0.171
relative viability (Alisertib + Dasatinib; first compound 0.5 µM): 0.172
relative viability (Alisertib + Phenformin; first compound 0.005 µM): 0.434
relative viability (Alisertib + Phenformin; first compound 0.01581 µM): 0.589
relative viability (Alisertib + Phenformin; first compound 0.05 µM): 0.442
relative viability (Alisertib + Phenformin; first compound 0.1581 µM): 0.18
relative viability (Alisertib + Phenformin; first compound 0.5 µM): 0.141
relative viability (Alisertib + AZD7762; first compound 0.005 µM): 0.568
relative viability (Alisertib + AZD7762; first compound 0.01581 µM): 0.617
relative viability (Alisertib + AZD7762; first compound 0.05 µM): 0.637
relative viability (Alisertib + AZD7762; first compound 0.1581 µM): 0.232
relative viability (Alisertib + AZD7762; first compound 0.5 µM): 0.17
relative viability (Alisertib + Pemetrexed; first compound 0.005 µM): 0.445
relative viability (Alisertib + Pemetrexed; first compound 0.01581 µM): 0.459
relative viability (Alisertib + Pemetrexed; first compound 0.05 µM): 0.438
relative viability (Alisertib + Pemetrexed; first compound 0.1581 µM): 0.178
relative viability (Alisertib + Pemetrexed; first compound 0.5 µM): 0.194
relative viability (Alisertib + Decitabine; first compound 0.005 µM): 0.419
relative viability (Alisertib + Decitabine; first compound 0.01581 µM): 0.377
relative viability (Alisertib + Decitabine; first compound 0.05 µM): 0.296
relative viability (Alisertib + Decitabine; first compound 0.1581 µM): 0.213
relative viability (Alisertib + Decitabine; first compound 0.5 µM): 0.255
relative viability (Alisertib + Vorinostat; first compound 0.005 µM): 0.351
relative viability (Alisertib + Vorinostat; first compound 0.01581 µM): 0.369
relative viability (Alisertib + Vorinostat; first compound 0.05 µM): 0.476
relative viability (Alisertib + Vorinostat; first compound 0.1581 µM): 0.221
relative viability (Alisertib + Vorinostat; first compound 0.5 µM): 0.223
relative viability (Alisertib + Olaparib; first compound 0.005 µM): 0.897
relative viability (Alisertib + Olaparib; first compound 0.01581 µM): 0.648
relative viability (Alisertib + Olaparib; first compound 0.05 µM): 0.306
relative viability (Alisertib + Olaparib; first compound 0.1581 µM): 0.29
relative viability (Alisertib + Olaparib; first compound 0.5 µM): 0.298
